Tests used:
Format in all cases: biochemical
[1] = biological target: human JAK2 (a.a. 828-1132) catalytic domain (Homo sapiens (Human), UniProt O60674); experiment: In vitro JAK kinase assay (HTRF, 1 mM ATP), JAK2; settings: at 1 mM ATP
Protocol: (§1) The catalytic activity of JAK1, JAK2 or JAK3 was assayed by measuring the phosphorylation of a biotinylated peptide. The phosphorylated peptide was detected by homogenous time resolved fluorescence (HTRF). […] Reactions were carried out at room temperature for 1 hour and then stopped with 20 μL 45 mM EDTA, 300 nM SA-APC, 6 nM Eu-Py20 in assay buffer (Perkin Elmer, Boston, Mass.). Binding to the Europium labeled antibody took place for 40 minutes and HTRF signal was measured on a Fusion plate reader (Perkin Elmer, Boston, Mass.).

[2] = biological target: human JAK1 (a.a. 837-1142) catalytic domain (Homo sapiens, UniProt P23458); experiment: In vitro JAK kinase assay (HTRF, 1 mM ATP), JAK1; settings: at 1 mM ATP;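 also: kinase activity followed as phosphorylation of a biotin-tagged peptide, detected by HTRF with Eu-labelled anti-phosphotyrosine antibody and SA-APC, after 1 h reaction at room temperature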
Protocol: as §1

[3] = tested on: human JAK1 (a.a. 837-1142) catalytic domain; experiment: In vitro JAK kinase assay (HTRF, 1 mM ATP), JAK1; settings: ratio of JAK2 IC50 to JAK1 IC50 at 1 mM ATP;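 also: kinase activity followed as phosphorylation of a biotin-tagged peptide, detected by HTRF with Eu-labelled anti-phosphotyrosine antibody and SA-APC, after 1 h reaction at room temperature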
Protocol: as §1

human JAK2 (a.a. 828-1132) catalytic domain, sequence (O60674 828-1132): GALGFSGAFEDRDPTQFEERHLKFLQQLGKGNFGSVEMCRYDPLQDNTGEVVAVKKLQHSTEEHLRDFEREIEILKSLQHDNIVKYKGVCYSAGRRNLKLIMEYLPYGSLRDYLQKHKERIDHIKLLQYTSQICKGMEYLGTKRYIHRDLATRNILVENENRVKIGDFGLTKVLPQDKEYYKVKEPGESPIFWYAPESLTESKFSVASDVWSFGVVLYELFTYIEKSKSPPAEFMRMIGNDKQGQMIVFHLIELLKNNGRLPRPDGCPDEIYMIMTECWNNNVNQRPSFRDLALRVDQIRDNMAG
human JAK1 (a.a. 837-1142) catalytic domain (Homo sapiens, UniProt P23458), sequence (P23458 whole entry, looked up, the tested form may be a part): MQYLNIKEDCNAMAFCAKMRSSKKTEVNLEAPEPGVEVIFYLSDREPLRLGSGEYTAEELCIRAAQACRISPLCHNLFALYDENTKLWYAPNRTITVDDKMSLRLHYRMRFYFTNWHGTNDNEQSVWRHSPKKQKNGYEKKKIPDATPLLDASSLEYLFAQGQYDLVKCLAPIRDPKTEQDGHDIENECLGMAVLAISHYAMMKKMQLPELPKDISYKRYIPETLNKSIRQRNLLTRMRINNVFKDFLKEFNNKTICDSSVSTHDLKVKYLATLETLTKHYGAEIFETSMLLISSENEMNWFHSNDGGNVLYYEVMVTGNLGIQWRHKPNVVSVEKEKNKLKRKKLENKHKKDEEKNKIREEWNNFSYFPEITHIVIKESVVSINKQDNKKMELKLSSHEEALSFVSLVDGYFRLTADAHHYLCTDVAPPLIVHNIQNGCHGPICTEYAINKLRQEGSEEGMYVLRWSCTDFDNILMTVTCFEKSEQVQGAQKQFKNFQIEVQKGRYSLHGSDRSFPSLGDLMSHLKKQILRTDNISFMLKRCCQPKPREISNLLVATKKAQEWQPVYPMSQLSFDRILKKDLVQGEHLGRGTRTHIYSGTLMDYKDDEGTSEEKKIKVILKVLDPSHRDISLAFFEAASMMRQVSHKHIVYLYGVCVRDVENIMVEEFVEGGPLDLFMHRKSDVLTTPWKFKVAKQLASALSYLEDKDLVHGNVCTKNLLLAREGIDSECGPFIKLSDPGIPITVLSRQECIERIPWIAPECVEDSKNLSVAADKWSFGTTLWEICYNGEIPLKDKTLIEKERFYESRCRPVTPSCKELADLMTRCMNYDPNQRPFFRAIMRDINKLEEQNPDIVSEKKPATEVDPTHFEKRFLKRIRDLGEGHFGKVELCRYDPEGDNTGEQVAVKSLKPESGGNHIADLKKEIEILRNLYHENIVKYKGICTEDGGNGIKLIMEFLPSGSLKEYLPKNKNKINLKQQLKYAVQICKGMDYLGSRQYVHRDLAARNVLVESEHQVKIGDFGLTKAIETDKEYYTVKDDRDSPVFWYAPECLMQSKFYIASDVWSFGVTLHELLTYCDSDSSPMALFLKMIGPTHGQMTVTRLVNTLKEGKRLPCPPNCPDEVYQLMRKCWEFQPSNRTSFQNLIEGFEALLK

Question: `N#CCC1(n2cc(-c3ncnc4[nH]ccc34)cn2)CN(c2cc(F)c(C(=O)NCC(F)F)cc2F)C1` [Example 37, 4-{3-(Cyanomethyl)-3-[4-(7H-pyrrolo[2,3-d]pyrimidin-4-yl)-1H-pyrazol-1-yl]azetidin-1-yl}-N-(2,2-difluoroethyl)-2,5-difluorobenzamide] was tested. Which IC50 [1] did it give?
Answer: ≤ 10 nM

Question: What about the IC50 [2] of the same compound?
Answer: < 10 nM

Question: And the JAK2/JAK1 [3]?
Answer: A (A means greater than or equal to 10)

Question: Which results are given for `N#CCC1(n2cc(-c3ncnc4[nH]ccc34)cn2)CN(c2ccc(C(=O)NC3(C(F)(F)F)CC3)nc2)C1` [Example 17, 5-{3-(Cyanomethyl)-3-[4-(7H-pyrrolo[2,3-d]pyrimidin-4-yl)-1H-pyrazol-1-yl]azetidin-1-yl}-N-[1-(trifluoromethyl)cyclopropyl]pyridine-2-carboxamide]?
Answer: IC50 [1]: ≤ 10 nM; IC50 [2]: < 10 nM; JAK2/JAK1 [3]: A (A means greater than or equal to 10)

Question: Which results are given for `CC(C)NC(=O)c1ccc(N2CC(CC#N)(n3cc(-c4ncnc5[nH]ccc45)cn3)C2)c(F)c1` [Example 3, 4-{3-(Cyanomethyl)-3-[4-(7H-pyrrolo[2,3-d]pyrimidin-4-yl)-1H-pyrazol-1-yl]azetidin-1-yl}-3-fluoro-N-isopropylbenzamide]?
Answer: IC50 [1]: ≤ 10 nM; IC50 [2]: < 10 nM; JAK2/JAK1 [3]: A (A means greater than or equal to 10)

Question: How did the IC50 [1] turn out when `CC(C)NC(=O)c1ccc(N2CC(CC#N)(n3cc(-c4ccnc5[nH]ccc45)cn3)C2)c(F)c1` [Example 27, 4-{3-(Cyanomethyl)-3-[4-(1H-pyrrolo[2,3-b]pyridin-4-yl)-1H-pyrazol-1-yl]azetidin-1-yl}-3-fluoro-N-isopropylbenzamide] was run?
Answer: ≤ 10 nM

Question: What about the IC50 [2] of the same compound?
Answer: < 10 nM

Question: And the JAK2/JAK1 [3]?
Answer: A (A means greater than or equal to 10)

Question: `CC(NC(=O)c1ccc(N2CC(CC#N)(n3cc(-c4ncnc5[nH]ccc45)cn3)C2)cc1)C(F)(F)F` (stereo not drawn) [Example 26, 4-{3-(Cyanomethyl)-3-[4-(7H-pyrrolo[2,3-d]pyrimidin-4-yl)-1H-pyrazol-1-yl]azetidin-1-yl}-N-(2,2,2-trifluoro-1-methylethyl)benzamide] was tested. Which IC50 [2] did it give?
Answer: < 10 nM

Question: What does the source list for `C[C@H](NC(=O)c1ccc(N2CC(CC#N)(n3cc(-c4ncnc5[nH]ccc45)cn3)C2)cc1F)C1CCCCC1` [Example 15, 4-{3-(Cyanomethyl)-3-[4-(7H-pyrrolo[2,3-d]pyrimidin-4-yl)-1H-pyrazol-1-yl]azetidin-1-yl}-N-[(1S)-1-cyclohexylethyl]-2-fluorobenzamide]?
Answer: IC50 [1]: 10 to 40 nM; IC50 [2]: < 10 nM; JAK2/JAK1 [3]: A (A means greater than or equal to 10)

Question: What does the source list for `CCNC(=O)c1ccc(N2CC(CC#N)(n3cc(-c4ncnc5[nH]ccc45)cn3)C2)cn1` [Example 24, 5-{3-(Cyanomethyl)-3-[4-(7H-pyrrolo[2,3-d]pyrimidin-4-yl)-1H-pyrazol-1-yl]azetidin-1-yl}-N-ethylpyridine-2-carboxamide]?
Answer: IC50 [1]: ≤ 10 nM; IC50 [2]: < 10 nM; JAK2/JAK1 [3]: A (A means greater than or equal to 10)

Question: How did the IC50 [1] turn out when `CC(C)NC(=O)c1ccc(N2CC(CC#N)(n3cc(-c4ncnc5[nH]ccc45)cn3)C2)cc1` [Example 13, 4-{3-(Cyanomethyl)-3-[4-(7H-pyrrolo[2,3-d]pyrimidin-4-yl)-1H-pyrazol-1-yl]azetidin-1-yl}-N-isopropylbenzamide] was run?
Answer: 10 to 40 nM

Question: And the IC50 [2]?
Answer: < 10 nM

Question: And the JAK2/JAK1 [3]?
Answer: A (A means greater than or equal to 10)

Question: Which IC50 [1] does the source give for `CC(C)NC(=O)c1ccc(N2CC(CC#N)(n3cc(-c4ncnc5[nH]ccc45)cn3)C2)cn1` [Example 9, 5-{3-(Cyanomethyl)-3-[4-(7H-pyrrolo[2,3-d]pyrimidin-4-yl)-1H-pyrazol-1-yl]azetidin-1-yl}-N-isopropylpyridine-2-carboxamide] here?
Answer: ≤ 10 nM

Question: What about the IC50 [2] of the same compound?
Answer: < 10 nM

Question: And the JAK2/JAK1 [3]?
Answer: A (A means greater than or equal to 10)

Question: What does the source list for `N#CCC1(n2cc(-c3ccnc4[nH]ccc34)cn2)CN(c2ccc(C(=O)NC3(C(F)(F)F)CC3)nc2)C1` [Example 40, 5-{3-(Cyanomethyl)-3-[4-(1H-pyrrolo[2,3-b]pyridin-4-yl)-1H-pyrazol-1-yl]azetidin-1-yl}-N-[1-(trifluoromethyl)cyclopropyl]pyridine-2-carboxamide]?
Answer: IC50 [1]: 10 to 40 nM; IC50 [2]: < 10 nM; JAK2/JAK1 [3]: A (A means greater than or equal to 10)

Question: Which IC50 [2] does the source give for `C[C@H](NC(=O)c1ccc(N2CC(CC#N)(n3cc(-c4ncnc5[nH]ccc45)cn3)C2)cc1)C(F)(F)F` [Example 19, 4-{3-(Cyanomethyl)-3-[4-(7H-pyrrolo[2,3-d]pyrimidin-4-yl)-1H-pyrazol-1-yl]azetidin-1-yl}-N-[(1S)-2,2,2-trifluoro-1-methylethyl]benzamide bis(trifluoroacetate)] here?
Answer: < 10 nM

Question: How did the IC50 [1] turn out when `C[C@H](NC(=O)c1cnc(N2CC(CC#N)(n3cc(-c4ccnc5[nH]ccc45)cn3)C2)cn1)C(F)(F)F` [Example 35, 5-{3-(Cyanomethyl)-3-[4-(1H-pyrrolo[2,3-b]pyridin-4-yl)-1H-pyrazol-1-yl]azetidin-1-yl}-N-[(1S)-2,2,2-trifluoro-1-methylethyl]pyrazine-2-carboxamide] was run?
Answer: 10 to 40 nM

Question: What about the IC50 [2] of the same compound?
Answer: < 10 nM

Question: And the JAK2/JAK1 [3]?
Answer: A (A means greater than or equal to 10)

Question: What does the source list for `CC(C)NC(=O)c1ccc(N2CC(CC#N)(n3cc(-c4ccnc5[nH]ccc45)cn3)C2)cc1` [Example 1, 4-{3-(Cyanomethyl)-3-[4-(1H-pyrrolo[2,3-b]pyridin-4-yl)-1H-pyrazol-1-yl]azetidin-1-yl}-N-isopropylbenzamide]?
Answer: IC50 [1]: 10 to 40 nM; IC50 [2]: < 10 nM; JAK2/JAK1 [3]: A (A means greater than or equal to 10)

Question: For `N#CCC1(n2cc(-c3ncnc4[nH]ccc34)cn2)CN(c2ccc(C(=O)NC3CC(F)(F)C3)nc2)C1` [Example 12, 5-{3-(Cyanomethyl)-3-[4-(7H-pyrrolo[2,3-d]pyrimidin-4-yl)-1H-pyrazol-1-yl]azetidin-1-yl}-N-(3,3-difluorocyclobutyl)pyridine-2-carboxamide], which IC50 [1] is on record?
Answer: ≤ 10 nM

Question: And the IC50 [2]?
Answer: < 10 nM

Question: What about the JAK2/JAK1 [3] of the same compound?
Answer: A (A means greater than or equal to 10)

Question: Which results are given for `C[C@@H](NC(=O)c1ccc(N2CC(CC#N)(n3cc(-c4ncnc5[nH]ccc45)cn3)C2)c(F)c1)C1CC1` [Example 4, 4-{3-(Cyanomethyl)-3-[4-(7H-pyrrolo[2,3-d]pyrimidin-4-yl)-1H-pyrazol-1-yl]azetidin-1-yl}-N-[(1R)-1-cyclopropylethyl]-3-fluorobenzamide]?
Answer: IC50 [1]: ≤ 10 nM; IC50 [2]: < 10 nM; JAK2/JAK1 [3]: A (A means greater than or equal to 10)

Question: How did the IC50 [1] turn out when `CC(C)NC(=O)c1cnc(N2CC(CC#N)(n3cc(-c4ncnc5[nH]ccc45)cn3)C2)cn1` [Example 18, 5-{3-(Cyanomethyl)-3-[4-(7H-pyrrolo[2,3-d]pyrimidin-4-yl)-1H-pyrazol-1-yl]azetidin-1-yl}-N-isopropylpyrazine-2-carboxamide] was run?
Answer: 10 to 40 nM

Question: Which results are given for `N#CCC1(n2cc(-c3ncnc4[nH]ccc34)cn2)CN(c2cnc(C(=O)N[C@@H](C3CC3)C(F)(F)F)cn2)C1` [Example 32, 5-{3-(Cyanomethyl)-3-[4-(7H-pyrrolo[2,3-d]pyrimidin-4-yl)-1H-pyrazol-1-yl]azetidin-1-yl}-N-[(1S)-1-cyclopropyl-2,2,2-trifluoroethyl]pyrazine-2-carboxamide]?
Answer: IC50 [1]: ≤ 10 nM; IC50 [2]: < 10 nM; JAK2/JAK1 [3]: A (A means greater than or equal to 10)

Question: Which IC50 [1] does the source give for `C[C@H](NC(=O)c1cnc(N2CC(CC#N)(n3cc(-c4ccnc5[nH]ccc45)cn3)C2)cn1)C1CC1` [Example 41, 5-{3-(Cyanomethyl)-3-[4-(1H-pyrrolo[2,3-b]pyridin-4-yl)-1H-pyrazol-1-yl]azetidin-1-yl}-N-[(1S)-1-cyclopropylethyl]pyrazine-2-carboxamide] here?
Answer: 10 to 40 nM

Question: And the IC50 [2]?
Answer: < 10 nM

Question: What about the JAK2/JAK1 [3] of the same compound?
Answer: A (A means greater than or equal to 10)

Question: `CC(C)NC(=O)c1cc(Cl)c(N2CC(CC#N)(n3cc(-c4ncnc5[nH]ccc45)cn3)C2)cc1F` [Example 8, 5-Chloro-4-{3-(cyanomethyl)-3-[4-(7H-pyrrolo[2,3-d]pyrimidin-4-yl)-1H-pyrazol-1-yl]azetidin-1-yl}-2-fluoro-N-isopropylbenzamide] was tested. Which IC50 [1] did it give?
Answer: ≤ 10 nM

Question: What about the IC50 [2] of the same compound?
Answer: < 10 nM

Question: What about the JAK2/JAK1 [3] of the same compound?
Answer: A (A means greater than or equal to 10)

Question: How did the IC50 [1] turn out when `C[C@@H](NC(=O)c1cc(F)c(N2CC(CC#N)(n3cc(-c4ncnc5[nH]ccc45)cn3)C2)cc1F)C1CC1` [Example 21, 4-{3-(Cyanomethyl)-3-[4-(7H-pyrrolo[2,3-d]pyrimidin-4-yl)-1H-pyrazol-1-yl]azetidin-1-yl}-N-[(1R)-1-cyclopropylethyl]-2,5-difluorobenzamide] was run?
Answer: ≤ 10 nM

Question: And the IC50 [2]?
Answer: < 10 nM

Question: What about the JAK2/JAK1 [3] of the same compound?
Answer: A (A means greater than or equal to 10)

Question: Which results are given for `N#CCC1(n2cc(-c3ccnc4[nH]ccc34)cn2)CN(c2cnc(C(=O)N[C@@H](C3CC3)C(F)(F)F)cn2)C1` [Example 42, 5-{3-(Cyanomethyl)-3-[4-(1H-pyrrolo[2,3-b]pyridin-4-yl)-1H-pyrazol-1-yl]azetidin-1-yl}-N-[(1S)-1-cyclopropyl-2,2,2-trifluoroethyl]pyrazine-2-carboxamide]?
Answer: IC50 [1]: 10 to 40 nM; IC50 [2]: < 10 nM; JAK2/JAK1 [3]: A (A means greater than or equal to 10)

Question: For `CC(C)NC(=O)c1ccc(N2CC(CC#N)(n3cc(-c4ncnc5[nH]ccc45)cn3)C2)cc1F` [Example 14, 4-{3-(Cyanomethyl)-3-[4-(7H-pyrrolo[2,3-d]pyrimidin-4-yl)-1H-pyrazol-1-yl]azetidin-1-yl}-2-fluoro-N-isopropylbenzamide], which IC50 [2] is on record?
Answer: < 10 nM

Question: With `CC(C)NC(=O)c1cnc(N2CC(CC#N)(n3cc(-c4ccnc5[nH]ccc45)cn3)C2)cn1` [Example 34, 5-{3-(Cyanomethyl)-3-[4-(1H-pyrrolo[2,3-b]pyridin-4-yl)-1H-pyrazol-1-yl]azetidin-1-yl}-N-isopropylpyrazine-2-carboxamide] as the compound, how does the IC50 [1] read?
Answer: 10 to 40 nM

Question: For `C[C@@H](NC(=O)c1ccc(N2CC(CC#N)(n3cc(-c4ncnc5[nH]ccc45)cn3)C2)cc1)C(F)(F)F` [Example 23, 4-{3-(Cyanomethyl)-3-[4-(7H-pyrrolo[2,3-d]pyrimidin-4-yl)-1H-pyrazol-1-yl]azetidin-1-yl}-N-[(1R)-2,2,2-trifluoro-1-methylethyl]benzamide bis(trifluoroacetate)], which IC50 [2] is on record?
Answer: < 10 nM
